How the values were obtained:
Test in all cases: drug sensitivity score (DSS3, normalised partial AUC of % inhibition dose-response) (DSS (score)); higher = more sensitive (stronger inhibition of viability); extreme values may be limits of the assay
[1] = system: FMOC24 (patient-derived high-grade serous ovarian cancer cells); details: 72 h; library: FO5A; assay format: 2D, 384-well, CellTiter-Glo
How it was run: (§1)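 Patient-derived ovarian cancer cells (early passage, under 10) were dispensed onto 384-well flat clear-bottom plates pre-plated with compounds at five concentrations covering a 10,000-fold range. Plates were incubated 72 h at 37 °C, 5% CO2, and viability was read with CellTiter-Glo. Data were processed in Breeze. The drug sensitivity score (DSS3) is a partial area under the percent-inhibition dose-response curve, divided by the log of the upper asymptote; higher means more sensitive.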

[2] = system: FMOC25_1 (patient-derived low-grade serous ovarian cancer cells); details: 72 h; library: FO4B; assay format: 2D, 384-well, CellTiter-Glo
How it was run: as §1

[3] = system: FMOC02_1 (patient-derived low-grade serous ovarian cancer cells); details: 72 h; library: FO5A; assay format: 2D, 384-well, CellTiter-Glo
How it was run: as §1

[4] = system: FMOC28 (patient-derived low-grade serous ovarian cancer cells); details: 72 h; library: FO5A; assay format: 2D, 384-well, CellTiter-Glo
How it was run: as §1

[5] = system: FMOC06 (patient-derived mucinous ovarian cancer cells); details: 72 h; library: FO5A; assay format: 2D, 384-well, CellTiter-Glo
How it was run: as §1

[6] = system: FMOC22 (patient-derived mucinous ovarian cancer cells); details: 72 h; library: FO5A; assay format: 2D, 384-well, CellTiter-Glo
How it was run: as §1

[7] = system: FMOC17 (patient-derived low-grade serous ovarian cancer cells); details: 72 h; library: FO5A; assay format: 2D, 384-well, CellTiter-Glo
How it was run: as §1

[8] = system: FMOC11 (patient-derived high-grade serous ovarian cancer cells); details: 72 h; library: FO5A; assay format: 2D, 384-well, CellTiter-Glo
How it was run: as §1

[9] = system: FMOC27 (patient-derived low-grade serous ovarian cancer cells); details: 72 h; library: FO5A; assay format: 2D, 384-well, CellTiter-Glo
How it was run: as §1

[10] = system: FMOC02_2 (patient-derived low-grade serous ovarian cancer cells); details: 72 h; library: FO5A; assay format: 2D, 384-well, CellTiter-Glo
How it was run: as §1

[11] = system: FMOC04 (patient-derived high-grade serous ovarian cancer cells); details: 72 h; library: FO5A; assay format: 2D, 384-well, CellTiter-Glo
How it was run: as §1

[12] = system: FMOC02_3 (patient-derived low-grade serous ovarian cancer cells); details: 72 h; library: FO5A; assay format: 2D, 384-well, CellTiter-Glo
How it was run: as §1

[13] = system: FMOC03 (patient-derived mucinous ovarian cancer cells); details: 72 h; library: FO5A; assay format: 2D, 384-well, CellTiter-Glo
How it was run: as §1

[14] = system: FMOC25_2 (patient-derived low-grade serous ovarian cancer cells); details: 72 h; library: FO5A; assay format: 2D, 384-well, CellTiter-Glo
How it was run: as §1

[15] = system: FMOC14 (patient-derived high-grade serous ovarian cancer cells); details: 72 h; library: FO5A; assay format: 2D, 384-well, CellTiter-Glo
How it was run: as §1

[16] = system: FMOC09 (patient-derived high-grade serous ovarian cancer cells); details: 72 h; library: FO5A; assay format: 2D, 384-well, CellTiter-Glo
How it was run: as §1

Row | SMILES | drug sensitivity score [1] | drug sensitivity score [2] | drug sensitivity score [3] | drug sensitivity score [4] | drug sensitivity score [5] | drug sensitivity score [6] | drug sensitivity score [7] | drug sensitivity score [8] | drug sensitivity score [9] | drug sensitivity score [10] | drug sensitivity score [11] | drug sensitivity score [12] | drug sensitivity score [13] | drug sensitivity score [14] | drug sensitivity score [15] | drug sensitivity score [16]
1 | CC(C)(O)CC(=O)NCCn1ccc2ncnc(Nc3ccc(Oc4cccc(C(F)(F)F)c4)c(Cl)c3)c21 [TAK-285] | 0.9 | 5 | 6.2 | 2.4 | 1.3 | 0 | 4.5 | 2.7 | 4.3 | 8.6 | 0 | 5.3 | 5.1 | 4.8 | 1 | 3.7
2 | Clc1ccc(C(c2ccccc2Cl)C(Cl)Cl)cc1 (stereo not drawn) [Mitotane] | 0 | 0 | 0 | 0 | 0 | 0 | 0 | 0 | 0 | 0 | 0 | 0 | 0 | 0 | 0 | 0
3 | CCCCNc1ncc(C(=O)NCc2ccc(-n3ccnc3)cc2)c(NC2CCC(O)CC2)n1 (stereo not drawn) [UNC2881] | 0.4 | 0 | 1.4 | 1.5 | 0 | 0.4 | 1.3 | 0 | 0 | 2.2 | 0 | 2.5 | 0.2 | 1.8 | 0 | 0
4 | Oc1ccc2c(c1)CC[C@H](c1ccccc1)[C@@H]2c1ccc(OCCN2CCCC2)cc1 [Lasofoxifene] | 0 | 0 | 0 | 0 | 0 | 0 | 0 | 0 | 0 | 0 | 0 | 0 | 0 | 0 | 1.1 | 0
5 | CC(C)(C)NC(=O)[C@H]1CC[C@H]2[C@@H]3CC[C@H]4NC(=O)C=C[C@]4(C)[C@H]3CC[C@]12C [Finasteride] | 1.1 | 0 | 0 | 0 | 0 | 0 | 0 | 0 | 0 | 0 | 0 | 0 | 0 | 0 | 0 | 0
6 | NC(=S)N/N=C/c1ncccc1N [Triapine] | 1.15 | 3.2 | 4.2 | 5.1 | 1.8 | 2.4 | 2.2 | 1.7 | 2.3 | 3.5 | 0 | 1.7 | 2.4 | 6 | 0 | 0.9
7 | Cc1ccc(NC(=O)c2ccc(CN3CCN(C)CC3)cc2)cc1Nc1nc(-c2cccnc2)cs1 [Masitinib] | 5.6 | 2.2 | 2.8 | 1.2 | 4.4 | 2.6 | 4.2 | 3.9 | 0 | 2.4 | 0.9 | 4.8 | 3.6 | 3.9 | 5.4 | 2.7
8 | O=C(O)CC[C@H]1CC[C@@](c2cc(F)ccc2F)(S(=O)(=O)c2ccc(Cl)cc2)CC1 [MK-0752] | 0 | 0 | 0 | 0.2 | 0.3 | 0 | 0 | 0 | 0 | 0 | 0 | 0.7 | 0 | 0 | 0 | 0
9 | Cc1ccc(C(=O)N(CCCN)[C@@H](c2oc3cc(Cl)ccc3c(=O)c2Cc2ccccc2)C(C)C)cc1 | 0 | 1.9 | 3.3 | 5 | 1.1 | 1.3 | 1.3 | 1.9 | 0 | 2.4 | 2.4 | 2.5 | 1.8 | 5.6 | 0 | 2.4
10 | CCCCCCCCCCCCCCCCCCOP(=O)([O-])OC1CC[N+](C)(C)CC1 [Perifosine] | 3.35 | 0 | 0 | 0 | 0.1 | 0 | 0 | 0 | 0 | 0 | 0 | 0 | 0 | 0.5 | 0 | 0
11 | O=C(CCCCCCNC(=O)c1cnc(N(c2ccccc2)c2ccccc2)nc1)NO [Rocilinostat] | 5.4 | 2.4 | 4.9 | 0.9 | 3.5 | 4.3 | 0.7 | 4.3 | 4.8 | 3 | 3.2 | 5.2 | 5.1 | 6.7 | 4.5 | 0.8
12 | CO[C@@]12[C@H](COC(N)=O)C3=C(C(=O)C(C)=C(N)C3=O)N1C[C@@H]1N[C@@H]12 [Mitomycin C] | 0.45 | 3.6 | 0 | 0.8 | 0 | 0 | 0 | 1.6 | 0.1 | 0 | 0 | 1.9 | 0 | 3.7 | 0 | 2.7
13 | C[C@@H](Oc1cc(-c2cnn(C3CCNCC3)c2)cnc1N)c1c(Cl)ccc(F)c1Cl [Crizotinib] | 0.65 | 0 | 0.9 | 0 | 0 | 0 | 0 | 0 | 0 | 0.1 | 0.05 | 0 | 0 | 0.4 | 0 | 0

From the supplement of paper PMC9938120
